Experimental data as given in BigSolDB 2.1.

CN1C(C(=O)Nc2ccccn2)=C(O)c2sc(Cl)cc2S1(=O)=O
Settings | solubility (mole fraction)
in PEG-400, 298.15 K | 0.00855
in PEG-400, 303.15 K | 0.0101
in PEG-400, 308.15 K | 0.0114
in PEG-400, 313.15 K | 0.0129
in PEG-400, 323.15 K | 0.0169

solubility (mole fraction)
Settings | in ethanol | in ethyl acetate | in ethylene glycol | in isopropanol | in n-butanol | in propylene glycol | in sec-butanol | in transcutol | in water
298.15 K | 8.43e-06 | 8.39e-05 | 0.000224 | 9.05e-06 | 1.36e-05 | 3.17e-05 | 2.99e-05 | 0.000317 | 2.91e-06
303.15 K | 1.16e-05 | 9.08e-05 | 0.000334 | 1.16e-05 | 1.55e-05 | 3.6e-05 | 3.59e-05 | 0.000382 | 4.12e-06
308.15 K | 1.45e-05 | 9.86e-05 | 0.000474 | 1.45e-05 | 1.75e-05 | 4.05e-05 | 4.19e-05 | 0.000462 | 5.52e-06
313.15 K | 1.98e-05 | 0.000107 | 0.000634 | 1.81e-05 | 1.99e-05 | 4.5e-05 | 4.78e-05 | 0.000552 | 7.27e-06
323.15 K | 3.22e-05 | 0.000121 | 0.00108 | 2.67e-05 | 2.39e-05 | 5.4e-05 | 6.58e-05 | 0.000743 | 1.19e-05
